# Patent publication US10670605B2, “Cysteine reactive probes and uses thereof” (The Scripps Research Institute, priority 2015, dated 2020)
# Key:
# KDM3A C251 (Q9Y4C1) = molecular target: T1, KDM3A C251 (Q9Y4C1) (Homo sapiens, UniProt Q9Y4C1); assay: Competitive isoTOP-ABPP, cell lysates; format: binding; conditions: for R value (DMSO/fragment): 500 μM
# T1 sequence (Q9Y4C1 1-1321): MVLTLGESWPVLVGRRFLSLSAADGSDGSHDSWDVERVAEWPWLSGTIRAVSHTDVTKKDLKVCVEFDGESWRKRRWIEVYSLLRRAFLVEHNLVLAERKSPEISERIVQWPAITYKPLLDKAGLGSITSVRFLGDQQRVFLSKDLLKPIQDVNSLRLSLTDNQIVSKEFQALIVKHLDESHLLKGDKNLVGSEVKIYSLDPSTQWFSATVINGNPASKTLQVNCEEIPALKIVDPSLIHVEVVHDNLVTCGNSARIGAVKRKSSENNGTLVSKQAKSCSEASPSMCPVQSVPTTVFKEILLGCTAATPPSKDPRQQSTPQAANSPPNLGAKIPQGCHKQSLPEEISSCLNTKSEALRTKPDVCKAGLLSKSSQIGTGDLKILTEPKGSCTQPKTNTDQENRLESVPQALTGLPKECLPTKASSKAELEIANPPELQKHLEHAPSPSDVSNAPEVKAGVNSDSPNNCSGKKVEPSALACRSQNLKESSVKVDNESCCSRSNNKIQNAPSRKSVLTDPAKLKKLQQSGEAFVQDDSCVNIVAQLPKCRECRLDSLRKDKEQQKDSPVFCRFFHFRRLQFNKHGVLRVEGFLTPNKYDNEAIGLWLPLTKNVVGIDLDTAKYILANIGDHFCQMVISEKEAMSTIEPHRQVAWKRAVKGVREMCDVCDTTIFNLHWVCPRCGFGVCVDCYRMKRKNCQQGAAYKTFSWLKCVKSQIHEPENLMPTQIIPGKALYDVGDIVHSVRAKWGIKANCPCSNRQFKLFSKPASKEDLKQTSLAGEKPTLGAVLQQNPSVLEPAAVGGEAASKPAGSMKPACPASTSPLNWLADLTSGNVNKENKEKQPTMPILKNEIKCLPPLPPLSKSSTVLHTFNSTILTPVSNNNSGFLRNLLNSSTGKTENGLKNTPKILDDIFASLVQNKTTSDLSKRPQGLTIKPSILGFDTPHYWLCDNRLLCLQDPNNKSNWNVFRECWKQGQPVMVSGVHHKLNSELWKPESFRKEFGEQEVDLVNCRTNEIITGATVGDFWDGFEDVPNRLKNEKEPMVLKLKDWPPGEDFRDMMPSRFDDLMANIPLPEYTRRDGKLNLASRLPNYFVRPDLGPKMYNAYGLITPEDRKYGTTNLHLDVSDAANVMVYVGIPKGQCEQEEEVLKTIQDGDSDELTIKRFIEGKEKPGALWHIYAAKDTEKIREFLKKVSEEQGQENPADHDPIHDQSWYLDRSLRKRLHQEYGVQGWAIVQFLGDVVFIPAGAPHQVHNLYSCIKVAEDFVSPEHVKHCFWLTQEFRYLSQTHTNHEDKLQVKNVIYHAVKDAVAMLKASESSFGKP
# USP22 C44 (Q9UPT9) = molecular target: T2, USP22 C44 (Q9UPT9) (Homo sapiens, UniProt Q9UPT9); assay: Competitive isoTOP-ABPP, cell lysates; format: binding
# T2 sequence (Q9UPT9 1-525): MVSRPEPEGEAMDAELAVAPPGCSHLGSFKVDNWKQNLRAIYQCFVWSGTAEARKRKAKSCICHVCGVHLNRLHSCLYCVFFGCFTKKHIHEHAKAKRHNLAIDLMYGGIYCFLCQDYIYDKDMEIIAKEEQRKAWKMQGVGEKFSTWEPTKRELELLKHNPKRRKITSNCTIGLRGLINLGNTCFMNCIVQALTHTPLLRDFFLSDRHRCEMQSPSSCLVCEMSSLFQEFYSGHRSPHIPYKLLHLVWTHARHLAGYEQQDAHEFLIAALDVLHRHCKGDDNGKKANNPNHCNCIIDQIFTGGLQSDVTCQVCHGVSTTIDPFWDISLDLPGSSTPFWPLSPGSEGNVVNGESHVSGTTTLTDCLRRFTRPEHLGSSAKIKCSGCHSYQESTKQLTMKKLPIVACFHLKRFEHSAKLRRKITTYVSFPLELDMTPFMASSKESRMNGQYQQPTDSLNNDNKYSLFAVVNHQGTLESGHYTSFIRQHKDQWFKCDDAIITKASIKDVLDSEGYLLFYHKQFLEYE
structure (smiles),measurement,setting,value
O=C(CCl)Nc1cc(C(F)(F)F)cc(C(F)(F)F)c1 [compound 3],R value (DMSO/fragment),"KDM3A C251 (Q9Y4C1); in vitro, MDA-MB-231",4.4
same,R value (DMSO/fragment),"KDM3A C251 (Q9Y4C1); invitro, ramos",4.0
C=CC(=O)N(c1ccccc1)c1ccc(Br)cc1 [compound 5],"isoTOP-ABPP ratio, Q9UPT9_C44","USP22 C44 (Q9UPT9); 500 μM, invitro, ramos",20.0
O=C(CCl)NC12CC3CC(CC(C3)C1)C2 [compound 21],"isoTOP-ABPP ratio (reactivity profile), Q9Y4C1_C251",KDM3A C251 (Q9Y4C1); 500 μm in-vitro ramos_231,0.7
CC(Br)C(=O)Nc1cc(C(F)(F)F)cc(C(F)(F)F)c1 (stereo not shown) [compound 24],"isoTOP-ABPP ratio (reactivity profile), Q9Y4C1_C251",KDM3A C251 (Q9Y4C1); 500 μm in-vitro ramos,1.3
CC(C)CCOCCNC(=O)CCl [compound 27],"isoTOP-ABPP ratio (reactivity profile), Q9UPT9_C44",USP22 C44 (Q9UPT9); 500 μm in-vitro ramos,1.2
same,"isoTOP-ABPP ratio (reactivity profile), Q9UPT9_C44",USP22 C44 (Q9UPT9); 500 μm in-vitro ramos_231,20.0
CCN(CC)c1ccc(S(N)(=O)=O)cc1NC(=O)CCl [compound 30],"isoTOP-ABPP reactivity ratio, Q9UPT9_C44","USP22 C44 (Q9UPT9); 500 μm, in-vitro_ramos",1.7
COc1cc(NC(=O)CCl)cc(OC)c1 [compound 43],"isoTOP-ABPP reactivity profile ratio, Q9UPT9_C44","USP22 C44 (Q9UPT9); 500 μm, in-vitro_ramos",2.1
C=CC(=O)N(c1ccccc1)C1CCCCC1 [compound 46],"isoTOP-ABPP reactivity profile ratio, Q9Y4C1_C251","KDM3A C251 (Q9Y4C1); 500 μm, in-vitro_ramos_231",1.0
